# Results published in PubChem BioAssay (NCI).
#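 In this assay, cells in 96-well plates receive the compound at five concentrations for 48 hours. Endpoints are linearly interpolated between the surrounding concentrations. GI50 is the concentration that inhibits growth by half. Definition used: TGI = concentration required for complete inhibition of growth.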
# Assays:
# Experiment in all cases: DTP human tumour cell line panel, 48 h
# OVCAR-8 ovarian = tested on: OVCAR-8 ovarian
# K-562 leukemia = tested on: K-562 leukemia
# KM12 colon = tested on: KM12 colon
# NCI-H226 lung = tested on: NCI-H226 lung
# NCI-H522 lung = tested on: NCI-H522 lung
# CCRF-CEM leukemia = tested on: CCRF-CEM leukemia
# SF-268 CNS = tested on: SF-268 CNS
# SK-MEL-5 melanoma = tested on: SK-MEL-5 melanoma
# SF-539 CNS = tested on: SF-539 CNS
# 786-0 renal = tested on: 786-0 renal
smiles,measurement,setting,value
CCOC(=O)C1C=C2O[C@@H]3OC4(CCCCC4)O[C@@H]3C2[C@H]2C(=O)C=CC(=O)[C@@]12C(=O)OC (stereo not given in full),TGI,OVCAR-8 ovarian,13.9 µM
same,TGI,K-562 leukemia,34.2 µM
same,TGI,KM12 colon,27.8 µM
same,TGI,NCI-H226 lung,36.4 µM
same,TGI,NCI-H522 lung,14.5 µM
same,TGI,CCRF-CEM leukemia,9.94 µM
same,TGI,SF-268 CNS,29.6 µM
same,TGI,SK-MEL-5 melanoma,33.9 µM
same,TGI,SF-539 CNS,6.16 µM
same,TGI,786-0 renal,18.7 µM
CCCCN(CCCC)C(=O)C(=O)CC(=O)c1ccc(Br)cc1,TGI,OVCAR-8 ovarian,> 100 µM
same,TGI,K-562 leukemia,> 100 µM
same,TGI,KM12 colon,> 100 µM
same,TGI,NCI-H226 lung,> 100 µM
same,TGI,NCI-H522 lung,> 100 µM
same,TGI,CCRF-CEM leukemia,> 100 µM
same,TGI,SF-268 CNS,> 100 µM
same,TGI,SK-MEL-5 melanoma,> 100 µM
same,TGI,SF-539 CNS,> 100 µM
same,TGI,786-0 renal,> 100 µM
C[C@@H](c1ccc2nccn2c1)n1nnc2ncc(-c3cnn(C)c3)nc21,GI50,OVCAR-8 ovarian,> 100 µM
same,TGI,OVCAR-8 ovarian,> 100 µM
same,GI50,K-562 leukemia,> 100 µM
same,TGI,K-562 leukemia,> 100 µM
same,GI50,KM12 colon,43.3 µM
same,TGI,KM12 colon,> 100 µM
same,GI50,NCI-H226 lung,> 100 µM
same,TGI,NCI-H226 lung,> 100 µM
same,GI50,NCI-H522 lung,> 100 µM
same,TGI,NCI-H522 lung,> 100 µM
same,GI50,CCRF-CEM leukemia,> 100 µM
same,TGI,CCRF-CEM leukemia,> 100 µM
same,GI50,SF-268 CNS,> 100 µM
same,TGI,SF-268 CNS,> 100 µM
same,GI50,SK-MEL-5 melanoma,> 100 µM
same,TGI,SK-MEL-5 melanoma,> 100 µM
same,GI50,SF-539 CNS,> 100 µM
same,TGI,SF-539 CNS,> 100 µM
same,GI50,786-0 renal,> 100 µM
same,TGI,786-0 renal,> 100 µM
O=C(Nc1ccncc1)C(=O)c1cn(S(=O)(=O)c2ccc(Br)cc2)c2ccccc12,GI50,OVCAR-8 ovarian,5.9 µM
same,TGI,OVCAR-8 ovarian,> 100 µM
same,GI50,K-562 leukemia,2.49 µM
same,TGI,K-562 leukemia,> 100 µM
same,GI50,KM12 colon,3.88 µM
same,TGI,KM12 colon,> 100 µM
same,GI50,NCI-H226 lung,20.9 µM
same,TGI,NCI-H226 lung,> 100 µM
same,GI50,NCI-H522 lung,1.94 µM
same,TGI,NCI-H522 lung,> 100 µM
same,GI50,CCRF-CEM leukemia,7.67 µM
same,TGI,CCRF-CEM leukemia,> 100 µM
same,GI50,SF-268 CNS,8.47 µM
same,TGI,SF-268 CNS,> 100 µM
same,GI50,SK-MEL-5 melanoma,3.5 µM
same,TGI,SK-MEL-5 melanoma,37.5 µM
same,GI50,SF-539 CNS,8.03 µM
same,TGI,SF-539 CNS,> 100 µM
same,GI50,786-0 renal,46.3 µM
same,TGI,786-0 renal,> 100 µM
NNC(=O)/C(=C/c1cccc([N+](=O)[O-])c1)NC(=O)c1ccccc1,TGI,OVCAR-8 ovarian,> 100 µM
same,TGI,K-562 leukemia,> 100 µM
same,TGI,KM12 colon,> 100 µM
same,TGI,NCI-H226 lung,> 100 µM
same,TGI,NCI-H522 lung,> 100 µM
same,TGI,CCRF-CEM leukemia,> 100 µM
same,TGI,SF-268 CNS,> 100 µM
same,TGI,SK-MEL-5 melanoma,> 100 µM
same,TGI,SF-539 CNS,> 100 µM
same,TGI,786-0 renal,> 100 µM
Cn1nc(-c2ccccc2NC(=O)C(F)(F)F)c(=O)n(C)c1=S,TGI,OVCAR-8 ovarian,67.7 µM
same,TGI,K-562 leukemia,66.8 µM
same,TGI,KM12 colon,80.9 µM
same,TGI,NCI-H226 lung,> 100 µM
same,TGI,NCI-H522 lung,49.2 µM
same,TGI,CCRF-CEM leukemia,> 100 µM
same,TGI,SF-268 CNS,56 µM
same,TGI,SK-MEL-5 melanoma,> 100 µM
same,TGI,SF-539 CNS,83.9 µM
same,TGI,786-0 renal,> 100 µM
N#C/C(=C\c1c(-c2ccccc2)[nH]c2ccccc12)C(=O)c1ccc(Cl)cc1,GI50,OVCAR-8 ovarian,6.16 µM
same,TGI,OVCAR-8 ovarian,> 47.9 µM
same,GI50,K-562 leukemia,0.336 µM
same,TGI,K-562 leukemia,5.32 µM
same,GI50,KM12 colon,0.735 µM
same,TGI,KM12 colon,23.6 µM
same,GI50,NCI-H226 lung,7.5 µM
same,TGI,NCI-H226 lung,47.2 µM
same,GI50,NCI-H522 lung,2.89 µM
same,TGI,NCI-H522 lung,> 30 µM
same,GI50,CCRF-CEM leukemia,2.48 µM
same,TGI,CCRF-CEM leukemia,> 100 µM
same,GI50,SF-268 CNS,4.55 µM
same,TGI,SF-268 CNS,24.8 µM
same,GI50,SK-MEL-5 melanoma,0.782 µM
same,TGI,SK-MEL-5 melanoma,12.5 µM
same,GI50,SF-539 CNS,0.715 µM
same,TGI,SF-539 CNS,3.99 µM
same,GI50,786-0 renal,5.53 µM
same,TGI,786-0 renal,23.5 µM
Nc1nc(N)[n+]([O-])c(N)c1NCO,TGI,OVCAR-8 ovarian,> 100 µM
same,TGI,K-562 leukemia,> 100 µM
same,TGI,KM12 colon,> 100 µM
same,TGI,NCI-H226 lung,> 100 µM
same,TGI,NCI-H522 lung,> 100 µM
same,TGI,CCRF-CEM leukemia,> 100 µM
same,TGI,SF-268 CNS,> 100 µM
same,TGI,SK-MEL-5 melanoma,> 100 µM
same,TGI,SF-539 CNS,> 100 µM
same,TGI,786-0 renal,> 100 µM
COc1cc(-c2cc(C(=O)N3CCN(C(=O)c4ccccc4NCc4ccco4)CC3)nc3cc(-c4ccccc4)nn23)cc(OC)c1OC,GI50,OVCAR-8 ovarian,4.38 µM
same,TGI,OVCAR-8 ovarian,> 100 µM
same,GI50,K-562 leukemia,1.95 µM
same,TGI,K-562 leukemia,> 100 µM
same,GI50,KM12 colon,0.878 µM
same,TGI,KM12 colon,> 100 µM
same,GI50,NCI-H226 lung,5.48 µM
same,TGI,NCI-H226 lung,> 100 µM
same,GI50,NCI-H522 lung,0.859 µM
same,TGI,NCI-H522 lung,> 26.5 µM
same,GI50,CCRF-CEM leukemia,4.57 µM
same,TGI,CCRF-CEM leukemia,> 100 µM
same,GI50,SF-268 CNS,4.38 µM
same,TGI,SF-268 CNS,> 100 µM
same,GI50,SK-MEL-5 melanoma,1.46 µM
same,TGI,SK-MEL-5 melanoma,> 100 µM
same,GI50,SF-539 CNS,3.11 µM
same,TGI,SF-539 CNS,> 26 µM
same,GI50,786-0 renal,4.55 µM
same,TGI,786-0 renal,> 100 µM
Cc1cc(NC(=O)C2c3ccccc3C(=O)N(CC(C)C)C2c2cccs2)no1 (stereo not given),GI50,OVCAR-8 ovarian,> 100 µM
same,TGI,OVCAR-8 ovarian,> 100 µM
same,GI50,K-562 leukemia,50.9 µM
same,TGI,K-562 leukemia,> 100 µM
same,GI50,KM12 colon,48.4 µM
same,TGI,KM12 colon,> 100 µM
same,GI50,NCI-H226 lung,> 100 µM
same,TGI,NCI-H226 lung,> 100 µM
same,GI50,NCI-H522 lung,52.2 µM
same,TGI,NCI-H522 lung,> 100 µM
same,GI50,CCRF-CEM leukemia,82.5 µM
same,TGI,CCRF-CEM leukemia,> 100 µM
same,GI50,SF-268 CNS,> 100 µM
same,TGI,SF-268 CNS,> 100 µM
same,GI50,SK-MEL-5 melanoma,73.2 µM
same,TGI,SK-MEL-5 melanoma,> 100 µM
same,GI50,SF-539 CNS,> 100 µM
same,TGI,SF-539 CNS,> 100 µM
same,GI50,786-0 renal,> 100 µM
same,TGI,786-0 renal,> 100 µM
O=C1c2ccccc2-c2c1c1ccccc1c(=O)n2CCO,TGI,OVCAR-8 ovarian,> 100 µM
same,TGI,K-562 leukemia,> 100 µM
same,TGI,KM12 colon,> 100 µM
same,TGI,NCI-H226 lung,> 38.1 µM
same,TGI,NCI-H522 lung,> 100 µM
same,TGI,CCRF-CEM leukemia,> 100 µM
same,TGI,SF-268 CNS,> 100 µM
same,TGI,SK-MEL-5 melanoma,33.1 µM
same,TGI,SF-539 CNS,> 94.1 µM
same,TGI,786-0 renal,> 100 µM
C=C(c1ccccc1N)[C@@]1(O)C[C@H](/C(=C\C)CO)C[C@@H]1NCc1ccccc1,TGI,OVCAR-8 ovarian,53.2 µM
same,TGI,K-562 leukemia,39.5 µM
same,TGI,KM12 colon,33.7 µM
same,TGI,NCI-H226 lung,33.4 µM
same,TGI,NCI-H522 lung,33.4 µM
same,TGI,CCRF-CEM leukemia,57.2 µM
same,TGI,SF-268 CNS,> 100 µM
same,TGI,SK-MEL-5 melanoma,32.8 µM
same,TGI,SF-539 CNS,29.9 µM
same,TGI,786-0 renal,46 µM
